Results reported in US5204352A, “Compounds exhibiting anti-parasitic activity and a method for their use” (The United States of America as represented by the …, priority 1987, dated 1993).

Tested on: Trypanosoma rhodesiense
Assay: In vivo trypanocidal activity in infected mice (protocol based on Rane et al.)
Parameters: Activity at dosage, value in parentheses (increase in survival): unit not given here
Settings: for Activity at dosage (C = Cures) / Activity at dosage, value in parentheses (increase in survival): peritoneal (Table 2)
Description: The compounds of the present invention were evaluated biologically in vivo with groups of 5 mice at various dose levels. Unless otherwise indicated, the data are for subcutaneous administration. Dose levels marked with an asterisk are for peritoneal administration in a HEC+T medium. In addition, Table 2 present results of peritoneal administration with substituted quanylhydrazones. The biological evaluation was done according to a standard protocol based on the method described by Rane et al., Amer. J. Trop. Med Hyg. 25:395 (1976). […]

[1] = 424* mg/kg, peritoneal in HEC+T medium (Table I)
[2] = 106* mg/kg, peritoneal in HEC+T medium (Table I)
[3] = 212* mg/kg, peritoneal in HEC+T medium (Table I)
[4] = 6.6* mg/kg, peritoneal in HEC+T medium (Table I)

C=CC[n+]1c(-c2ccc(NC(C)=O)cc2)cn2cc(C)ccc21 [BK02557]
Increase in survival [1]: 3.8 days
Trypanocidal activity, cures [1]: 2/10

C=CC[n+]1c(-c2ccc(N(CC)C(C)=O)cc2)cn2ccccc21 [BK02566]
Increase in survival [2]: 2.8 days
Trypanocidal activity, cures [2]: 1/10
Increase in survival [3]: 4.7 days
Trypanocidal activity, cures [3]: 1/5
Increase in survival [1]: 9.9 days
Trypanocidal activity, cures [1]: 5/10

C[n+]1c(-c2ccc(C(N)=S)cc2)cn2ccccc21 [BK11743]
Increase in survival (6.65 mg/kg, subcutaneous): 2.7 days
Trypanocidal activity, cures (6.65 mg/kg, subcutaneous): 2/10
Increase in survival (13.3 mg/kg, subcutaneous): 3.3 days
Trypanocidal activity, cures (13.3 mg/kg, subcutaneous): 1/10
Increase in survival (26 mg/kg, subcutaneous): 4.0 days
Trypanocidal activity, cures (26 mg/kg, subcutaneous): 3/15
Trypanocidal activity, cures (53 mg/kg, subcutaneous): 5/5
Increase in survival (106 mg/kg, subcutaneous): 3.2 days
Trypanocidal activity, cures (106 mg/kg, subcutaneous): 5/10
Increase in survival (212 mg/kg, subcutaneous): 17.0 days
Trypanocidal activity, cures (212 mg/kg, subcutaneous): 4/5

C=CC[n+]1c(-c2ccc(C=NNC(=N)N)cc2)cn2ccccc21 [BK11770]
Trypanocidal activity, cures (13.3 mg/kg, subcutaneous): 5/5

C[n+]1c(-c2ccc(C=NNC(=N)N)cc2)cn2cc(Cl)ccc21 [BK13069]
Trypanocidal activity, cures (6.65 mg/kg, subcutaneous): 5/5

Cc1ccc2n(c1)cc(-c1ccc(C=NNC(=N)N)cc1)[n+]2C [BK13078]
Increase in survival (0.21 mg/kg, subcutaneous): 5.3 days
Trypanocidal activity, cures (0.21 mg/kg, subcutaneous): 2/5
Increase in survival (0.42 mg/kg, subcutaneous): 7.0 days
Trypanocidal activity, cures (0.42 mg/kg, subcutaneous): 4/5
Activity at dosage (C = Cures) (0.8 mg/kg): INAC
Trypanocidal activity, cures (0.83 mg/kg, subcutaneous): 10/10
Increase in survival (1.66 mg/kg, subcutaneous): 11.0 days
Trypanocidal activity, cures (1.66 mg/kg, subcutaneous): 9/10
Activity at dosage (C = Cures) (1.7 mg/kg): INAC
Activity at dosage, value in parentheses (increase in survival) (3.3 mg/kg): 1.0
Increase in survival (3.3 mg/kg, subcutaneous): 1.0 days
Trypanocidal activity, cures (3.33 mg/kg, subcutaneous): 5/5
Trypanocidal activity, cures (6.65 mg/kg, subcutaneous): 5/5
Activity at dosage, value in parentheses (increase in survival) (6.7 mg/kg): 7.0
Trypanocidal activity, cures (13.3 mg/kg, subcutaneous): 10/10
Activity at dosage, value in parentheses (increase in survival) (26 mg/kg): 10.6
Trypanocidal activity, cures (26.5 mg/kg, subcutaneous): 15/15
Activity at dosage, value in parentheses (increase in survival) (424 mg/kg): 12.5
Increase in survival [4]: 7.0 days
Trypanocidal activity, cures [4]: 3/5
Trypanocidal activity, cures (13* mg/kg, peritoneal in HEC+T medium (Table I)): 10/10
Trypanocidal activity, cures (26* mg/kg, peritoneal in HEC+T medium (Table I)): 13/15
Trypanocidal activity, cures (53* mg/kg, peritoneal in HEC+T medium (Table I)): 10/10
Trypanocidal activity, cures [2]: 10/10
Trypanocidal activity, cures [3]: 5/5

Cc1ccc2n(c1)cc(-c1ccc(C(N)=NO)cc1)[n+]2C [BK13087]
Increase in survival (53 mg/kg, subcutaneous): 2.3 days
Trypanocidal activity, cures (53 mg/kg, subcutaneous): 2/5

C[n+]1c(-c2ccc(C(=N)N)cc2)cn2ccccc21 [BK16471]
Increase in survival (13.3 mg/kg, subcutaneous): 3.2 days
Trypanocidal activity, cures (13.3 mg/kg, subcutaneous): 2/10
Trypanocidal activity, cures (26.5 mg/kg, subcutaneous): 10/10
Trypanocidal activity, cures (53 mg/kg, subcutaneous): 5/5

C[n+]1c(-c2ccc(C(N)=NO)cc2)cn2ccsc21 [BK16499]
Increase in survival (26 mg/kg, subcutaneous): 2.7 days
Trypanocidal activity, cures (26 mg/kg, subcutaneous): 2/10
Increase in survival (53 mg/kg, subcutaneous): 4.7 days
Trypanocidal activity, cures (53 mg/kg, subcutaneous): 2/10

C[n+]1c(-c2ccc(C(=N)N)cc2)cn2ccsc21 [BK21874]
Increase in survival (26.5 mg/kg, subcutaneous): 3.6 days
Trypanocidal activity, cures (26.5 mg/kg, subcutaneous): 1/10
Increase in survival (53 mg/kg, subcutaneous): 2.5 days
Trypanocidal activity, cures (53 mg/kg, subcutaneous): 2/5
Increase in survival (106 mg/kg, subcutaneous): 12.9 days
Trypanocidal activity, cures (106 mg/kg, subcutaneous): 9/10
Trypanocidal activity, cures (212 mg/kg, subcutaneous): 5/5

C[n+]1c(-c2ccc(C=NNC(=N)N)cc2)cn2ccsc21 [BK21909]
Trypanocidal activity, cures (13.3 mg/kg, subcutaneous): 5/5

C[n+]1c(-c2ccc(C=NNC(N)=O)cc2)cn2ccsc21 [BK21918]
Increase in survival (26.5 mg/kg, subcutaneous): 4.8 days
Increase in survival (53 mg/kg, subcutaneous): 4.5 days

CCN(CC)CCNC(=N)c1ccc(-c2cn3ccccc3[n+]2C)cc1 [BK23001]
Increase in survival (13.3 mg/kg, subcutaneous): 6.6 days

Cn1cc(-c2ccc(C=NNC(N)=O)cc2)[n+](C)c1 [BK23994]
Increase in survival (424 mg/kg, subcutaneous): 5.8 days

C=CC[n+]1c(-c2ccc(C=NNc3ncn[nH]3)cc2)cn2ccccc21 [BK24017]
Increase in survival (26 mg/kg, subcutaneous): 2.3 days
Trypanocidal activity, cures (26 mg/kg, subcutaneous): 4/10
Increase in survival (53 mg/kg, subcutaneous): 4.6 days

C[n+]1c(-c2ccc(-c3n[nH]c(N)n3)cc2)cn2ccsc21 [BK42720]
Trypanocidal activity, cures (26.5 mg/kg, subcutaneous): 5/5
